Reference: PMC3879575, “Evidence That GH115 α-Glucuronidase Activity, Which Is Required to Degrade Plant Biomass, Is Dependent on Conformational Flexibility” (The Journal of Biological Chemistry, 2013)

How the values were obtained:
[1] = biological target: BoAgu115A (BACOVA_03449), GH115 α-glucuronidase of Bacteroides ovatus (Bacteroides ovatus); test: AUC; sedimentation velocity, interference optics, 48,000 rpm, 20 °C, sample volume 400 μl
BoAgu115A (BACOVA_03449) [2] = biological target: T1, BoAgu115A (BACOVA_03449) (Bacteroides ovatus, UniProt A0ABU3IS40); test: X-ray crystal structure, […] Å; format: binding; details: crystals soaked with 300 mM GlcA; pH 5.5; active site; open-chain form
T1 construct: mature form (signal peptide removed), N-terminal His6 tag (pET28a), E. coli BL21 DE3, 824 residues, 85 kDa, homodimer; modelled residues 33-856

BoAgu115A (BACOVA_03449) [3] = biological target: T1, BoAgu115A (BACOVA_03449); test: coupled alpha-D-glucuronidase assay kit, NADH at […] nm; format: biochemical; details: PC buffer (50 mM sodium phosphate, 12 mM citrate) pH 6.5, 1 mg/ml BSA, 37 °C

Row | Compound | Km (BoAgu115A (BACOVA_03449) [3]) [mM] | other results
1 | BoAgu115A (BACOVA_03449), GH115 α-glucuronidase of Bacteroides ovatus (enzyme) |  | stoichiometry N [1]: 2
2 | O=C[C@H](O)[C@@H](O)[C@H](O)[C@H](O)C(=O)O [GlcA] |  | X-ray crystal structure, 2.14 Å (BoAgu115A (BACOVA_03449) [2]): BoAgu115A was co-crystallized with GlcA, which revealed electron density for the uronic acid
3 | UXX | 19.5 | 
4 | CO[C@H]1[C@H](O)[C@@H](O)[C@@H](O[C@H]2[C@H](O[C@@H]3CO[C@@H](O[C@@H]4COC(O)[C@H](O)[C@H]4O)[C@H](O)[C@H]3O)OC[C@@H](O[C@@H]3OC[C@@H](O)[C@H](O)[C@H]3O)[C@@H]2O)O[C@@H]1C(=O)O (stereo partly shown) [XUXX] | 4.5 | 
